Values after ≈ are worked out from the molar mass of the structure shown.
Tests used:
Green peach aphid (GPA) = test: Green peach aphid test, sprayed infested broccoli leaves, percent killed after 24 hours; format: in vivo; conditions: Myzus persicae, lethal concentration at which 50% of the pests are killed
From the text: (§1) A test solution containing 600 ppm of test compound is made by dissolving the test compound in a solvent (acetone:methanol, 1:1), adding surfactant and then water to give an acetone:methanol:water system of 10:10:80. A 1:1 mixture of an alkylarylpolyether-alcohol (commercially available under the trademark Triton X-155) and a modified phthalic glycerol alkyd resin (commercially available under the trademark Triton B-1956) can be utilized at the equivalent of one ounce per gallon of test solution as a surfactant.
(§2) For the mite test, infested bean (Phaseolus limeanus) leaf discs (1.25 inches in diameter) containing about 50 mites and for green peach aphid tests, infested broccoli (Brassica oleracea italica) leaves or portions thereof containing about 50 aphids are placed in a Petri dish lid on a moistened piece of cotton. The leaves are then sprayed with the test solution using a rotating turntable. They are held for 24 hours and then the percent killed is determined.

Boll weevil (BW) = test: Boll weevil test, sprayed jars with adult boll weevils, percent kill after 48 hours; format: in vivo; conditions: Anthonomus grandis, lethal concentration at which 50% of the pests are killed
From the text: as §1
For the boll weevil and house fly tests, half pint glass canning jars with a screened top are used. Food is supplied for the boll weevil (apple) and for the house fly (sugar water). The test insects consist of 10 adult boll weevils and 20 adult house flies. The jars containing the insects are sprayed using the turntable. The percent kill of boll weevil is determined 48 hours after the application. In the house fly test, a percent knockdown is determined one hour after application, the percent kill after 24 hours.

Corn rootworm larva = test: Southern corn rootworm larvae test, sprayed filter paper, 6 days; format: in vivo, Diabrotica undecimpunctata howardi; conditions: 144 h, lethal concentration at which 50% of the pests are killed
From the text: (§3) Diabrotica undecimpunctata howardi
as §1
(§4) For tests involving the southern corn rootworm ova and larvae, two layers of 4.25 cm. filter papers are placed in small, Petri dishes, and sprayed on the turntable with a 600 ppm solution of the test compound and air dried. About 100 eggs in about one milliliter of water are pipetted onto the filter paper and the dishes covered. These are held for 6 days and examined under the microscope. The percent kill values for ova and larvae are determined.

Southern armyworm (AW) = test: Armyworm test, sprayed bean leaves infested with third instar larvae, percent killed after 48 hours; format: in vivo; conditions: Spodoptera eridania, lethal concentration at which 50% of the pests are killed
From the text: as §1
(§5) For the bean beetle and armyworm test, detached bean leaves on pieces of moistened filter paper are sprayed as above for the mite test in similar dishes and allowed to dry. One such dish is infested with 10 third instar Mexican bean beetle larvae, while another is infested with 10 third instar southern armyworm larvae. The dishes are covered. After holding for 48 hours, the percent killed is obtained.

[1] = tested on: Two-spotted spider mite (TSM); test: Mite test, sprayed infested bean leaf discs, percent killed after 24 hours; format: in vivo; conditions: Tetranychus urticae, foliar, lethal concentration at which 50% of the pests are killed
From the text: Two-spotted spider mite
as §1, §2

Mexican bean beetle (BB) = test: Bean beetle test, sprayed bean leaves infested with third instar larvae, percent killed after 48 hours; format: in vivo; conditions: Epilachna varivestis, lethal concentration at which 50% of the pests are killed
From the text: Mexican bean beetle (BB)
as §1, §5

Corn rootworm ova = test: Southern corn rootworm ova test, sprayed filter paper, 6 days; format: in vivo, Diabrotica undecimpunctata howardi; conditions: 144 h, lethal concentration at which 50% of the pests are killed
From the text: as §3, §1, §4

| SMILES | LC50 (Green peach aphid (GPA)) [µg/mL] | LC50 (Boll weevil (BW)) [µg/mL] | LC50 (Corn rootworm larva) [µg/mL] | LC50 (Southern armyworm (AW)) [µg/mL] | LC50 [1] [µg/mL] | LC50 (Mexican bean beetle (BB)) [µg/mL] | LC50 (Corn rootworm ova) [µg/mL] |
| --- | --- | --- | --- | --- | --- | --- | --- |
| CCCSP(=O)(OCC)Oc1ccc(S(=O)(=O)Oc2ccccc2)cc1 (centres unmarked) [Example II, O-Ethyl O-[4-(phenoxysulfonyl)phenyl]S-n-propyl phosphorothiolate] | 7.5 (≈ 18 µM) | 345 (≈ 828 µM) | 32 (≈ 76.8 µM) | 32 (≈ 76.8 µM) | 9.8 (≈ 23.5 µM) | 75 (≈ 180 µM) | > 600 |
| CCCSP(=O)(OCC)Oc1ccc(S(=O)(=O)Oc2ccc([N+](=O)[O-])cc2)cc1 (centres unmarked) [III, O-Ethyl-O-[4-(4'-nitrophenoxysulfonyl)phenyl]S-n-propyl phosphorothiolate] | 6.2 (≈ 13.4 µM) | > 600 | 75 (≈ 163 µM) | 45 (≈ 97.5 µM) | 5 (≈ 10.8 µM) | 75 (≈ 163 µM) | > 600 |
| CCCSP(=O)(OCC)Oc1ccc(S(=O)(=O)Oc2ccc(Cl)cc2)cc1 (centres unmarked) [IV, O-[4-(4'-chlorophenoxysulfonyl)phenyl]O-ethyl S-n-propyl phosphorothiolate] | 2.5 (≈ 5.54 µM) | 138 (≈ 306 µM) | 4.1 (≈ 9.09 µM) | 75 (≈ 166 µM) | 2.9 (≈ 6.43 µM) | 75 (≈ 166 µM) | 142 (≈ 315 µM) |
| CCOP(=O)(Oc1ccc(S(=O)(=O)Oc2ccccc2)cc1)SC(C)CC (centres unmarked) [IX, S-sec-Butyl O-ethyl O-[4-(phenoxysulfonyl)phenyl]phosphorothiolate] | 2.8 (≈ 6.5 µM) | 75 (≈ 174 µM) | 8.4 (≈ 19.5 µM) | 45 (≈ 105 µM) | 5.8 (≈ 13.5 µM) | 15 (≈ 34.8 µM) | 230 (≈ 534 µM) |
| CCCSP(=O)(OCC)Oc1ccc(S(=O)(=O)Oc2ccc(C#N)cc2)cc1 (centres unmarked) [VI, O-[4-(4'-cyanophenoxysulfonyl)phenyl]O-ethyl S-n-propyl phoshorothiolate] | 18 (≈ 40.8 µM) | > 600 | 38 (≈ 86.1 µM) | 41 (≈ 92.9 µM) | 6.8 (≈ 15.4 µM) | 49 (≈ 111 µM) | > 600 |
| CCCSP(=O)(OCC)Oc1ccc(S(=O)(=O)Oc2ccc(SC)cc2)cc1 (centres unmarked) [VII, O-Ethyl-O-[4-(4'-methylthiophenoxysulfonyl)phenyl]S-n-propyl phosphorothiolate] | 6.4 (≈ 13.8 µM) | 550 (≈ 1190 µM) | 130 (≈ 281 µM) | 27 (≈ 58.4 µM) | 2.4 (≈ 5.19 µM) | 162 (≈ 350 µM) | > 600 |
| CCCSP(=O)(OCC)Oc1ccc(S(=O)(=O)Oc2ccc(C)cc2)cc1 (centres unmarked) [VIII, O-Ethyl-O-[4-(4'-methylphenoxysulfonyl)phenyl]S-n-propyl phosphorothiolate] | 7.5 (≈ 17.4 µM) | > 600 | 33 (≈ 76.7 µM) | 75 (≈ 174 µM) | 20 (≈ 46.5 µM) | 150 (≈ 348 µM) | 550 (≈ 1280 µM) |
| CCOP(=O)(Oc1ccc(S(=O)(=O)Oc2ccccc2)cc1)SCC(C)C (centres unmarked) [XI, O-Ethyl S-isobutyl O-[4-(phenoxysulfonyl)phenyl]phosphorothiolate] | 1.3 (≈ 3.02 µM) | 75 (≈ 174 µM) | 142 (≈ 330 µM) | 49 (≈ 114 µM) | 6.6 (≈ 15.3 µM) | 26 (≈ 60.4 µM) | > 600 |
| CCCSP(=O)(OC)Oc1ccc(S(=O)(=O)Oc2ccc([N+](=O)[O-])cc2)cc1 (centres unmarked) [XII, O-Methyl O-[4-(4'-nitrophenoxysulfonyl)phenyl]S-n-propyl phosphorothiola] | 26 (≈ 58.1 µM) | 500 (≈ 1120 µM) | 75 (≈ 168 µM) | 45 (≈ 101 µM) | 6.6 (≈ 14.8 µM) | 54 (≈ 121 µM) | > 600 |
| CCCSP(=S)(OCC)Oc1ccc(S(=O)(=O)Oc2ccccc2)cc1 (centres unmarked) [XIII, O-Ethyl O-[4-(phenoxysulfonyl)phenyl]S-n-propyl phosphorodithiolate] | 38 (≈ 87.9 µM) | 150 (≈ 347 µM) | 10 (≈ 23.1 µM) | 75 (≈ 173 µM) | 8 (≈ 18.5 µM) | 150 (≈ 347 µM) | > 600 |
| CCCCSP(=O)(OCC)Oc1ccc(S(=O)(=O)Oc2ccccc2)cc1 (centres unmarked) [X] | 8.6 (≈ 20 µM) | > 600 | 75 (≈ 174 µM) | 41 (≈ 95.2 µM) | 5 (≈ 11.6 µM) | 27 (≈ 62.7 µM) | > 600 |

Reference: patent publication US4287189A, “O,S-Dialkyl O-oxysulfonylphenyl phosphorothiolates and phosphorodithioates” (priority 1980, dated 1981)
